Experimental data published in patent US6407129B1, “Azole compounds, their production and their use” (Takeda Chemical Industries, Ltd., priority 1997, dated 2002).

What was measured:
Type in all cases: in vivo
Candida albicans TA [1] = assay: Protective effect against experimental Candida albicans TA infection in mice, oral administration (Experiment 2); conditions: Crj:CDF1 female mice, i.v. infection, compound in 5% glucose given orally immediately after infection; Reed and Muench from survival rates on day 7
Procedure: (§1) Method: Five-week-old Crj:CDF1 female mice were infected intravenously with minimum lethal dose of Candida albicans TA. The test compounds were dissolved in 5% glucose solution and were administered orally to the mice immediately after infection. Protective effects of the compounds were expressed as 50% effective dose (ED50) calculated using the method of Reed and Muench from survival rates on day 7 after infection.

Candida albicans TA [2] = assay: Protective effect against experimental Candida albicans TA infection in mice, intravenous administration (Experiment 1); conditions: Crj:CDF1 female mice, compound in 5% glucose given intravenously immediately after infection, Reed and Muench from survival rates on day 7
Procedure: as §1, with “intravenously” for “orally”

Candida albicans T.A. = assay: Protective effect at a single dose of 1.04 μmol/kg against experimental Candida albicans TA infection in mice (Experiment 3); conditions: n = 5 mice; for Mean survival day of the mice which died, i.v. / No. of survivors, i.v.: 1.04 μmol/kg i.v.; for Mean survival day of the mice which died, i.v. / Mean survival day of the mice which died, p.o.: mice which had died up to 7 days after infection; for No. of survivors, i.v. / No. of survivors, p.o.: survivors on day 7 after infection; for Mean survival day of the mice which died, p.o. / No. of survivors, p.o.: 1.04 μmol/kg p.o.
Procedure: Method: Five-week-old Crj:CDF1 female mice were infected intravenously with minimum lethal dose of Candida albicans T.A. The test compounds were dissolved in 5% glucose solution and were administered intravenously (i.v.) or orally (p.o.) to the mice at a dose of 1.04 μmol/kg immediately after infection. Protective effect of each compound were expressed as the number of survivors on day 7 after infection and the mean survival days of the mice which had died up to 7 days after infection.
The protective effect of the reference compound shown in figure (V) is included in Table 7. The reference compound was suspended in 0.5% sodium carboxymethyl cellulose and was administered orally to the mice at a dose of 1.04 μmol/kg immediately after infection.

| Compound | ED50 p.o. (Candida albicans TA [1]) [µmol/kg] | ED50 i.v. (Candida albicans TA [2]) [µmol/kg] | Mean survival day of the mice which died, i.v. (Candida albicans T.A.) [days] | No. of survivors, i.v. (Candida albicans T.A.) | Mean survival day of the mice which died, p.o. (Candida albicans T.A.) [days] | No. of survivors, p.o. (Candida albicans T.A.) |
| --- | --- | --- | --- | --- | --- | --- |
| 1-[(2R,3R)-2-(2,4-difluorophenyl)-2-hydroxy-3-[2-oxo-3-[4-(1H-1,2,3-triazol-1-yl)phenyl]-1-imidazolidinyl]butyl]-4-[(2,2-dimethylpropanoyloxy)methyl]-1H-1,2,4-triazolium chloride [Compound 1] | 2.9 | 2.3 | – | – | – | – |
| 1-[(2R,3R)-2-(2,4-difluorophenyl)-2-hydroxy-3-[2-oxo-3-[4-(1H-tetrazol-1-yl)phenyl]-1-imidazolidinyl]butyl]-4-(isopropoxycarbonyloxy)methyl-1H-1,2,4-triazolium chloride [Compound 18] | – | – | 5.5 | 3 | 4.5 | 3 |
| C[C@@H](N1CCN(c2ccc(-n3cnnn3)cc2)C1=O)[C@](O)(C[n+]1cn(COC(=O)C(C)(C)C)cn1)c1ccc(F)cc1F.[Cl-] [Compound 2, 1-[(2R,3R)-2-(2,4-difluorophenyl)-2-hydroxy-3-[2-oxo-3-[4-(1H-tetrazol-1-yl)phenyl]-1-imidazolidinyl]butyl]-4-[(2,2-dimethylpropanoyloxy)methyl]-1,2,4-triazolium chloride] | 1.8 | 1.5 | – | – | – | – |
| CC(=O)OC[n+]1cnn(C[C@](O)(c2ccc(F)cc2F)[C@@H](C)N2CCN(c3ccc(-n4cnnn4)cc3)C2=O)c1.[Br-] [Compound 11, 4-acetoxymethyl-1-[(2R,3R)-2-(2,4-difluorophenyl)-2-hydroxy-3-[2-oxo-3-[4-(1H-tetrazol-1-yl)phenyl]-1-imidazolidinyl]butyl]-1H-1,2,4-triazolium bromide] | – | – | 4.0 | 2 | 6.0 | 3 |
| CC(=O)OC[n+]1cnn(C[C@](O)(c2ccc(F)cc2F)[C@@H](C)N2CCN(c3ccc(-n4cnnn4)cc3)C2=O)c1.[Cl-] [Compound 12, 4-acetoxymethyl-1-[(2R,3R)-2-(2,4-difluorophenyl)-2-hydroxy-3-[2-oxo-3-[4-(1H-tetrazol-1-yl)phenyl]-1-imidazolidinyl]butyl]-1H-1,2,4-triazolium chloride] | – | – | 4.5 | 3 | 5.0 | 4 |
| CCC(=O)OC[n+]1cnn(C[C@](O)(c2ccc(F)cc2F)[C@@H](C)N2CCN(c3ccc(-n4cnnn4)cc3)C2=O)c1.[Cl-] [Compound 14, 1-[(2R,3R)-2-(2,4-difluorophenyl)-2-hydroxy-3-[2-oxo-3-[4-(1H-tetrazol-1-yl)phenyl]-1-imidazolidinyl]butyl]-4-propanoyloxymethyl-1H-1,2,4-triazolium chloride] | – | – | 4.5 | 1 | 6.0 | 3 |
| CCOC(=O)OC[n+]1cnn(C[C@](O)(c2ccc(F)cc2F)[C@@H](C)N2CCN(c3ccc(-n4cnnn4)cc3)C2=O)c1.[Cl-] [Compound 16, 1-[(2R,3R)-2-(2,4-difluorophenyl)-2-hydroxy-3-[2-oxo-3-[4-(1H-tetrazol-1-yl)phenyl]-1-imidazolidinyl]butyl]-4-ethoxycarbonyloxymethyl-1H-1,2,4-triazolium chloride] | – | – | 6.0 | 4 | – | 5 |
| CC(N1CCN(c2ccc(-n3cnnn3)cc2)C1=O)C(O)(Cn1cncn1)c1ccc(F)cc1F (stereo not shown) [Reference compound (V), reference compound] | – | – | – | – | 4.3 | 2 |
